Test results as given in US20250215016A1, “ISOXAZOLE-HETEROCYCLIC DERIVATIVE, PHARMACEUTICAL COMPOSITION AND USE” (SHANGHAI SIMR BIOTECHNOLOGY CO., LTD, priority 2022, published 2025).

Experiment: Stability in simulated gastric fluid (SGF)
Type: physicochemical
Details: 37° C., 1000 rpm
Experimental: Simulated gastric fluid (SGF), Manufacturer: Dongguan Chuangfeng Automation Technology Co., Ltd.; Product model: CF-006.
Oscillating constant temperature metal bath, Model: Thermo; Manufacturer: Digital Skaking Drybath.
Temperature: 37° C.; rotating speed: 1000 rpm; sampling time: 0, 4 hours.
Chromatographic column: Welch Xtimate C18 3.0×100 mm, 5 μm. Mobile phase: A: 0.04% trifluoroacetic acid (TFA)/H2O (v/v), B: acetonitrile (ACN). Gradient elution was performed according to the following table, flow rate: 1.0 mL/min; injection volume: 5 μL; column temperature: 35° C.; wavelength: 254 nm.
• (a) preparation of 0.04% TFA/H2O: 400 μL of TFA was measured, placed into 1 L of H2O, and homogenously mixed; • (b) Sample stock solution: about 3 mg of test sample was weighed, and prepared into a stock solution of 10 mmol/L using DMSO; • (c) 50 μL of the sample stock solution was taken, placed into a 5 mL volumetric flask, made up to the scale with the addition of SGF, and homogenously mixed. 400 μL of the solution was taken, four samples in parallel, and shaken at 1000 rpm and 37° C.; • (d) every two samples were taken after 0 and 4 hours respectively, 400 μL of acetonitrile was added, and homogenously mixed, followed by liquid phase injection, and calculation of the change % of the main peak area in the solution after 4 hours relative to 0 hour, two average value reports being taken at each time point.

Row | SMILES | Residual content in simulated gastric juice after 4 hours (compared with 0 hour content)
1 | Cc1onc(-c2ccc(F)cc2)c1COc1ccc(C(=O)N2CCS(=O)(=O)CC2)cn1 [WO2009071476, Example 112, reference compound] | 2% (4 hours)
2 | Cc1onc(-c2ccc(F)cc2)c1COc1ccc(C(=O)NC2CCOCC2)cn1 [WO2009071476, Example 109, reference compound] | 15% (4 hours)
3 | Cc1onc(-c2ccc(F)cc2)c1COc1ccc(C(=O)NC2CCOCC2)nn1 [WO2009071477, Example 63, reference compound] | 0% (4 hours)

Continued, values first:

Row | Residual content in simulated gastric juice after 4 hours (compared with 0 hour content) | SMILES
4 | 80% (4 hours) | Cc1onc(-c2ccc(F)cc2)c1COc1cnc(N2CCn3c(nnc3C(F)(F)F)C2=O)cn1 [Compound 26, 7-(5-((3-(4-fluorophenyl)-5-methylisoxazol-4-yl)methoxy)pyrazin-2-yl)-3-(trifluoromethyl)-6,7-dihydro-[1,2,4]triazolo[4,3-a]pyrazin-8(5H)-one]
5 | 87% (4 hours) | Cc1onc(-c2ccc(F)cc2)c1COc1cnc(N2CCn3cccc3C2=O)cn1 [Compound 45, 2-(5-((3-(4-fluorophenyl)-5-methylisoxazol-4-yl)methoxy)pyrazin-2-yl)-3,4-dihydropyrrolo [1,2-a]pyrazin-1(2H)-one]
6 | 64% (4 hours) | Cc1onc(-c2ccc(F)cc2)c1COc1cnc(-c2cc3n(c(=O)n2)CC24CC(CN32)C4)cn1 [Compound 9, 3-(5-((3-(4-fluorophenyl)-5-methylisoxazol-4-yl)methoxy)pyrazin-2-yl)-7,8-dihydro-1H,6H,9H-7,8a-methanopyrrolo[1′,2′:3.4]imidazo[1,2-c]pyrimidin-1-one]
7 | 89% (4 hours) | Cc1onc(-c2ccc(F)cc2)c1COc1cnc(-c2nnc3n2CCN(C2CCC2)C3=O)cn1 [Compound 4, 7-cyclobutyl-3-(5-((3-(4-fluorophenyl)-5-methylisoxazol-4-yl)methoxy)pyrazin-2-yl)-6,7-dihydro-[1,2,4]triazolo[4,3-a]pyrazin-8(5H)-one]
